Experiment [1] has as its system late-LTP in CA1 st. radiatum of hippocampal slices. Kind of experiment: Late-LTP recording (fEPSP) in hippocampal slices of wild-type mice. It is filed as cell-based, mouse. The settings on record: for effect on established late-LTP (fEPSP slope), tetanized pathway / effect on baseline synaptic transmission, untetanized pathway: wild-type mice; for effect on established late-LTP (fEPSP slope), tetanized pathway: 10 μM applied to the bath 3 h post-tetanization; for effect on baseline synaptic transmission, untetanized pathway: 10 μM in bath; for potentiation after drug washout: drug applied 3 h starting 3 h post-tetanization, then 4-h washout. The method, then: (§1) Acute mouse hippocampal slices (450 μm) were prepared as previously described (17, 73). Hippocampi from 2-6-month-old male C57/B6 or PKM ζ-null mice as previously described (17) were dissected, bathed in ice-cold dissection buffer, and sliced with a McIlwain tissue slicer in a cold room (4° C.). The dissection buffer contained (in mM): 125 NaCl, 2.5 KCl, 1.25 NaH2PO4, 26 NaHCO3, 11 glucose, 10 MgCl2, and 0.5 CaCl2), and was bubbled with 95% O2/5% CO2 to maintain pH at 7.4. After dissection the slices were immediately transferred into an Oslo-type interface recording chamber (31.5±1° C.) (73). The recording superfusate consisted of (in mM): 118 NaCl, 3.5 KCl, 2.5 CaCl2), 1.3 MgSO4, 1.25 NaH2PO4, 24 NaHCO3, and 15 glucose, bubbled with 95% O2/5% CO2, with a flow rate of 0.5 ml/min. In a subset of experiments a custom-made recirculation system employing piezoelectric pumps was used for recycling the superfusate (Bartels Mikrotechnik GmbH, Dortmund, Germany) (73).
(§2) Field EPSPs were recorded with a glass extracellular recording electrode (2-5 M (2) placed in the CA1 st. radiatum, and concentric bipolar stimulating electrodes (CBBRE75 and 30200; FHC, Bowdoin, ME) were placed on either side within CA3 or CA1. Test stimulation rate was once every 30 sec, alternating every 15 sec between stimulating electrodes. Based upon a pre-established exclusion criterion, a slice was not used if fEPSP spike threshold was <2 mV on initial input-output analysis. Pathway independence was confirmed by the absence of paired-pulse facilitation between the two pathways. A single stimulating electrode was used for PLA/immunocytochemistry with a test stimulation rate of once every 30 sec. The high-frequency stimulation, optimized to produce a relatively rapid onset of protein synthesis-dependent late-LTP (74), consisted of two 100 Hz-1 s tetanic trains, at 25% of spike threshold, spaced 20 sec apart. The maximum slope of the rise of the fEPSP was analyzed on a PC using the WinLTP data acquisition program (75).
(§3) Replicates are biological because there is only one measurement for each sample. Drug/vehicle comparisons were performed blindly. Sample sizes vary for the different experimental approaches (biochemistry, slice physiology, and behavior) and were established by power analyses based on effect size estimates from published work or preliminary experiments. The observed effect sizes for binary comparisons are reported as Cohen's d and as η^2p for ANOVA effects. Multi-factor comparisons were performed using ANOVA with repeated measures, as appropriate. Two-population Student's/tests were performed to compare protein immunofluorescence intensity between control and potentiated hippocampal slices. For LTP experiments, the responses were first normalized to the mean of the 30 min period prior to tetanization (or equivalent in control pathways), and then the means over 5 min periods were used for statistical comparisons (e.g., pre-tetanization, beginning and end of drug application). Paired Student's t tests were used to compare the change in the potentiated response at time points at the beginning and end of drug application. The degrees of freedom for the critical t values of the/tests and the F values of the ANOVAs are reported as subscripts. Post-hoc multiple comparisons were performed by Newman-Keuls tests as appropriate. Statistical significance was accepted at P<0.05 or appropriate Bonferroni correction for multiple comparisons.
Now we can test the central prediction of the KIBRA-PKMζ maintenance hypothesis that decoupling PKMζ from KIBRA reverses potentiation of activated synapses. We simultaneously recorded two independent synaptic pathways in st. radiatum within a hippocampal slice. We stimulated one pathway by high-frequency tetanization to induce late-LTP, and in the second pathway we recorded low-frequency test fEPSP responses for the equivalent time. […]

Experiment [2] relates to late-LTP in hippocampal slices of PKMζ-null mice. The experiment in a line: Late-LTP recording (fEPSP) in hippocampal slices of PKMζ-null mice. In kind it is cell-based, mouse. The settings on record: for effect on late-LTP, tetanized pathway: 10 μM applied 3 h post-tetanization; for effect on baseline synaptic transmission, untetanized pathway: 10 μM in bath. The method, then:
as §1, §2
as §3, with “comparisons. […]” for “comparisons.”

For experiment [3], the system named is auditory-cued fear/threat memory. Kind of experiment: Auditory-cued fear/threat conditioning, infusion into basolateral amygdala, wild-type mice. In kind it is in vivo, mouse. The settings on record: 6 nmol in 0.3 μL into each BLA, tested 1 day post-injection. The method, then:
Mice were 8-10 weeks old at the time of cannulation and 9-11 weeks old at the beginning of behavioral experiments. Mice were housed with cage-mates in plastic cages and provided with food and water ad libitum. Mice were maintained on a 12 h light/dark cycle (lights on at 7:00 am) and behavioral experiments began at 9:00 am.
Mice were injected intraperitoneally (1 ml/100 g body weight) with an anesthetic cocktail containing ketamine (10 mg/ml) and xylazine (2 mg/ml). Mice were provided with analgesic treatment prior to surgery (carprofen; 5 mg/ml). Guide cannulae (Plastics One, Roanoke, VA) were implanted bilaterally in the basolateral amygdala (from bregma: AP-1.7 mm; L+/−3.0 mm; DV-4.4 mm) and secured to the skull with three jeweler's screws and dental cement. Antisedan (0.66 ml/100 g body weight of 0.5 mg drug/ml solution) was given via i.p. injection after surgery to reverse the anesthesia.
For 7 days following surgery, mice were handled by freely exploring the experimenter's palm for 2-5 min. Mice were habituated, trained, and tested in the same conditioning box (Coulbourn Habitest, Coulboum Instruments) with differing floors and walls to produce two different contexts (Context A and Context B). […] Freezing behavior (cessation of all movement except breathing) during the tone on Test 1 and Test 2 was scored by an experimenter blind to the conditions. […]

“Also recorded” adds a separate entry of the source. Where no end group is shown, it is not given here. The star is where a group is joined. Myristoyl = CCCCCCCCCCCCCC(=O)*

Consider “myr-N-FVRNSLERRSVRMKRPS-C (Myristoyl-FVRNSLERRSVRMKRPS) [K-ZAP]”, for which, in experiment [1], the “effect on established late-LTP (fEPSP slope), tetanized pathway” value is recorded as “reverses late-LTP maintenance” and the “effect on baseline synaptic transmission, untetanized pathway” value (shortened to “effect on baseline synaptic transmission”) was “no measurable effect on baseline synaptic transmission; also recorded: no effect on untetanized pathway”. Moreover, in experiment [2], the “effect on late-LTP, tetanized pathway” value is “has no effect on late-LTP maintenance; also recorded: has no effect on PKMz-null-LTP” and the “effect on baseline synaptic transmission” value was “no effect”.
For `O=S(=O)(O)c1cc(O)c2c(S(=O)(=O)O)cc(S(=O)(=O)O)cc2c1` [ζ-stat, 1-naphthol-3,6,8-trisulphonic acid], the “effect on established late-LTP (fEPSP slope), tetanized pathway” value in experiment [1] is given as “reverses late-LTP maintenance”; in experiment [1] (listed as z-stat), “reverses late-LTP”. In addition, the “effect on baseline synaptic transmission” value was “without measurably affecting synaptic transmission” in experiment [1], “no effect on baseline synaptic transmission” in experiment [1] (listed as z-stat) and “has no effect on late-LTP or baseline synaptic transmission” in experiment [2]. Besides, the “potentiation after drug washout” value in experiment [1] (wild-type) was “reversal of potentiation persisted”; in experiment [1] (wild-type, listed as z-stat), “potentiation does not return”. For the same compound, the “effect on late-LTP when drug is present at tetanization” value in experiment [1] (wild-type, first pathway, 150 min post-tetanization with drug) is reported as “suppresses late-LTP”. Besides, in experiment [1] (wild-type, tetanized after 1-h washout), the “late-LTP in second pathway after washout” value was “late-LTP is induced and maintained in second pathway”. For the same compound, the “auditory-cued fear/threat memory retention (% time freezing to tone)” value in experiment [3] was “impairs memory retention”; in experiment [3] (listed as z-stat), “disrupts fear/threat memory retention”. The results for the “effect on late-LTP, tetanized pathway” value in experiment [2] and in experiment [2] (listed as z-stat) were “has no effect on late-LTP maintenance” and “has no effect on late-LTP”, respectively.

The record behind these values is patent US20250154212A1, “METHOD OF DISRUPTING MEMORY AND LIPOPEPTIDE FOR USE IN SUCH METHOD” (The Research Foundation for The State University of New York, priority 2023, published 2025).
